Measured values published in patent US11179450B2, “Long chain antigen containing interepitope sequence that promotes antigen presentation to T cells” (MIE UNIVERSITY, priority 2013, dated 2021).

Test system: CD8+ T cells specific to MA p265, NY p81 and mERK2 9m
Experiment: Specific CD8+ T cell induction by CHP/long chain peptide vaccines in mice, intracellular cytokine staining of spleen cells
Assay type: in vivo, BALB/c mice
Excerpt: Long chain peptide antigens MEN, all containing three types of mouse CD8+ T cell epitope sequences (MA p265 (Sequence No. 27), NY p81 (Sequence No. 29), and mERK2 9m (Sequence No. 28)), were synthesized. The interepitope sequences between the respective epitopes were respectively six consecutive tyrosines (Y6) (Sequence No. 1), six consecutive glycines (G6) (Sequence No. 2), six consecutive prolines (P6) (Sequence No. 3), or six consecutive threonines (T6) (Sequence No. 4). Each long chain peptide antigen was complexed with cholesterol-modified pullulan (CHP), which is a type of delivery system, and administered as a vaccine to a mouse. In the process of administration, CpG oligo DNA was coadministered as an adjuvant. Spleen cells were collected one week after the final administration and the frequencies of CD8+ T cells specific to the respective epitope sequences were measured by an intracellular cytokine staining method.
Long chain peptide antigens NME, all containing three types of mouse CD8+ T cell epitope sequences (MA p265 (Sequence No. 27), NY p81 (Sequence No. 29), and mERK2 9m (Sequence No. 28)), were synthesized. The antigens differ from the MEN sequences shown in FIG. 1 in the order of the three types of epitopes. The interepitope sequences between the respective epitopes were respectively six consecutive tyrosines (Y6) (Sequence No. 5), six consecutive glycines (G6) (Sequence No. 6), or six consecutive prolines (P6) (Sequence No. 7). Vaccines containing the respective long chain peptide antigens were administered to mice in the same manner as in FIG. 1 and the frequencies of CD8+ T cells specific to the respective epitope sequences were measured by the intracellular cytokine staining method.
Long chain peptide antigens MEN, ENM, and NME, all containing three types of mouse CD8+ T cell epitope sequences (MA p265 (Sequence No. 27), NY p81 (Sequence No. 29), and mERK2 9m (Sequence No. 28)), were synthesized. MEN, ENM, and […] in the order of the three types of epitopes. The interepitope sequences between the respective epitopes were each six consecutive tyrosines (Y6) (Sequence Nos. 1, 5 and 8). Vaccines containing the respective long chain peptide antigens were administered to mice in the same manner as in FIG. 1 and the frequencies of CD8+ T cells specific to the respective epitope sequences were measured by the intracellular cytokine staining method.
Each long chain peptide was dissolved in dimethyl sulfoxide (DMSO) at a concentration of 10 mg/mL. CHP was dissolved in 6 M urea-containing phosphate buffered saline (PBS) at a concentration of 10 mg/mL 1 mL (10 mg) of the long chain peptide solution and 20 mL (200 mg) of the CHP solution were mixed and left to stand at room temperature overnight in a dark place. The liquid mixture was transferred into a dialysis membrane (molecular weight cutoff: 3,500; Thermo Fisher Scientific, Inc.) and dialyzed for 2 hours to overnight at 4° C. against 0.6 M urea-containing PBS of a volume ratio of not less than 100 times as the dialysis outer solution. Dialysis was then performed for 2 hours to overnight at 4° C. against 0.06 M urea-containing PBS of a volume ratio of not less than 100 times as the dialysis outer solution. Dialysis was performed again for 2 hours to overnight at 4° C. against PBS of a volume ratio of not less than 100 times as the dialysis outer solution. The dialyzed inner solution was collected, filtered through a filtration sterilization filter of 0.45 μm or 0.22 μm pore size, and thereafter the UV absorption at 280 nm was measured to determine the final concentration of the long chain peptide from its molecular extinction coefficient.
Each CHP/long chain peptide complex as the vaccine and the CpG oligo DNA as the adjuvant were administered at the same time to a mouse. Administration was performed by subcutaneous injection on the back of the mouse. […]

For “SNPARYEFLYYYYYYQYIHSANVLYYYYYYRGPESRLL (Long chain peptide antigen, containing three types of mouse CD8+ T cell epitope sequences (MA p265, NY p81, and mERK2 9m)) [MEN(Y6)]”, the “induction of specific CD8+ T cells corresponding to all three types of epitopes” value (FIG. 1, MEN antigens complexed with CHP, subcutaneous, CpG oligo DNA adjuvant, spleen cells one week after final administration) was “clearly induced”, the “induction of specific CD8+ T cells corresponding to all three types of epitopes” value (FIG. 4, MEN, ENM, NME epitope orders, interepitope sequence fixed at Y6) was “clearly induced” and the “number of tyrosines of the interepitope sequence, judged in view of the results for the three types of epitopes” value (FIG. 6, comparing one to six tyrosines) was “best”. For the same sequence, the “number of tyrosines of the interepitope sequence, judged in view of the results for the three types of epitopes” value (FIG. 7, comparing five to ten tyrosines) was “best”.
